#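 48-hour exposure; five concentrations; linearly interpolated endpoints. Abbreviation: GI50, concentration required for 50% inhibition of growth. TGI marks complete inhibition of growth.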
# Columns and labels:
# Assay in all cases: NCI anticancer screen, dose series, 48 h
# [1] = system: SNB-75 CNS
# [2] = system: MALME-3M melanoma
# [3] = system: T-47D breast
# [4] = system: LOX IMVI melanoma
# [5] = system: TK-10 renal
# [6] = system: NCI-H226 lung
# [7] = system: HCT-116 colon
# [8] = system: RXF 393 renal
# [9] = system: OVCAR-3 ovarian
# [10] = system: SK-OV-3 ovarian
# [11] = system: DU-145 prostate
# [12] = system: HOP-62 NSCLC
# [13] = system: KM12 colon
# [14] = system: MDA-MB-435
# [15] = system: COLO 205 colon
# [16] = system: MDA-MB-231 breast
# [17] = system: SN12C renal
# [18] = system: MCF7 breast
# [19] = system: UACC-257 melanoma
# [20] = system: A498 renal
# [21] = system: UO-31 renal
# [22] = system: OVCAR-5 ovarian
# [23] = system: OVCAR-8 ovarian
# [24] = system: RPMI-8226 leukemia
# [25] = system: SK-MEL-28 melanoma
# [26] = system: K-562 leukemia
# [27] = system: SF-295 CNS
# [28] = system: SNB-19 CNS
# [29] = system: HCC-2998 colon
# [30] = system: ACHN renal
# [31] = system: HS 578T breast
# [32] = system: SK-MEL-2 melanoma
# [33] = system: IGROV1 ovarian
# [34] = system: SW-620 colon
# [35] = system: MDA-N
# [36] = system: MOLT-4 leukemia
# [37] = system: 786-0 renal
# [38] = system: HCT-15 colon
# [39] = system: UACC-62 melanoma
# [40] = system: CCRF-CEM leukemia
# [41] = system: HT29 colon
# [42] = system: OVCAR-4 ovarian
# [43] = system: NCI/ADR-RES ovarian
# [44] = system: U251 CNS
# [45] = system: SR leukemia
# [46] = system: NCI-H23 lung
# [47] = system: NCI-H522 lung
# [48] = system: PC-3 prostate
# [49] = system: M14 melanoma
# [50] = system: HL-60(TB) leukemia
# [51] = system: SF-268 CNS
# [52] = system: SF-539 CNS
# [53] = system: NCI-H460 lung
# [54] = system: SK-MEL-5 melanoma
# [55] = system: EKVX NSCLC
# [56] = system: CAKI-1 renal
# [57] = system: A549 NSCLC
smiles,measurement,setting,value
CCC1=C(C)c2cc3[n-]c(cc4nc(c(C=O)c5[n-]c(cc1n2)c(C)c5CC)C(C)=C4CC)c(C)c3CC.[Ni+2],GI50,[1],93.6 µM
same,TGI,[1],> 100 µM
same,GI50,[2],> 100 µM
same,TGI,[2],> 100 µM
same,GI50,[3],> 100 µM
same,TGI,[3],> 100 µM
same,GI50,[4],> 100 µM
same,TGI,[4],> 100 µM
same,GI50,[5],> 100 µM
same,TGI,[5],> 100 µM
same,GI50,[6],> 100 µM
same,TGI,[6],> 100 µM
same,GI50,[7],> 100 µM
same,TGI,[7],> 100 µM
same,GI50,[8],> 100 µM
same,TGI,[8],> 100 µM
same,GI50,[9],> 100 µM
same,TGI,[9],> 100 µM
same,GI50,[10],> 100 µM
same,TGI,[10],> 100 µM
same,GI50,[11],> 100 µM
same,TGI,[11],> 100 µM
same,GI50,[12],> 100 µM
same,TGI,[12],> 100 µM
same,GI50,[13],> 100 µM
same,TGI,[13],> 100 µM
same,GI50,[14],> 100 µM
same,TGI,[14],> 100 µM
same,GI50,[15],> 100 µM
same,TGI,[15],> 100 µM
same,GI50,[16],> 100 µM
same,TGI,[16],> 100 µM
same,GI50,[17],> 100 µM
same,TGI,[17],> 100 µM
same,GI50,[18],> 100 µM
same,TGI,[18],> 100 µM
same,GI50,[19],> 100 µM
same,TGI,[19],> 100 µM
same,GI50,[20],> 100 µM
same,TGI,[20],> 100 µM
same,GI50,[21],> 100 µM
same,TGI,[21],> 100 µM
same,GI50,[22],> 100 µM
same,TGI,[22],> 100 µM
same,GI50,[23],> 100 µM
same,TGI,[23],> 100 µM
same,GI50,[24],> 100 µM
same,TGI,[24],> 100 µM
same,GI50,[25],> 100 µM
same,TGI,[25],> 100 µM
same,GI50,[26],> 100 µM
same,TGI,[26],> 100 µM
same,GI50,[27],> 100 µM
same,TGI,[27],> 100 µM
same,GI50,[28],> 100 µM
same,TGI,[28],> 100 µM
same,GI50,[29],> 100 µM
same,TGI,[29],> 100 µM
same,GI50,[30],> 100 µM
same,TGI,[30],> 100 µM
same,GI50,[31],> 100 µM
same,TGI,[31],> 100 µM
same,GI50,[32],> 100 µM
same,TGI,[32],> 100 µM
same,GI50,[33],> 100 µM
same,TGI,[33],> 100 µM
same,GI50,[34],> 100 µM
same,TGI,[34],> 100 µM
same,GI50,[35],> 100 µM
same,TGI,[35],> 100 µM
same,GI50,[36],> 100 µM
same,TGI,[36],> 100 µM
same,GI50,[37],> 100 µM
same,TGI,[37],> 100 µM
same,GI50,[38],> 100 µM
same,TGI,[38],> 100 µM
same,GI50,[39],> 100 µM
same,TGI,[39],> 100 µM
same,GI50,[40],> 100 µM
same,TGI,[40],> 100 µM
same,GI50,[41],> 100 µM
same,TGI,[41],> 100 µM
same,GI50,[42],> 100 µM
same,TGI,[42],> 100 µM
same,GI50,[43],> 100 µM
same,TGI,[43],> 100 µM
same,GI50,[44],> 100 µM
same,TGI,[44],> 100 µM
same,GI50,[45],0.022 µM
same,TGI,[45],> 100 µM
same,GI50,[46],> 100 µM
same,TGI,[46],> 100 µM
same,GI50,[47],> 100 µM
same,TGI,[47],> 100 µM
same,GI50,[48],> 100 µM
same,TGI,[48],> 100 µM
same,GI50,[49],> 100 µM
same,TGI,[49],> 100 µM
same,GI50,[50],> 100 µM
same,TGI,[50],> 100 µM
same,GI50,[51],> 100 µM
same,TGI,[51],> 100 µM
same,GI50,[52],> 100 µM
same,TGI,[52],> 100 µM
same,GI50,[53],> 100 µM
same,TGI,[53],> 100 µM
CN(C)C=Nc1ccc2nonc2c1,TGI,[1],> 100 µM
same,TGI,[2],> 100 µM
same,TGI,[3],> 100 µM
same,TGI,[54],> 100 µM
same,TGI,[5],> 100 µM
same,TGI,[6],> 100 µM
same,TGI,[7],> 100 µM
same,TGI,[8],> 100 µM
same,TGI,[9],> 100 µM
same,TGI,[10],> 100 µM
same,TGI,[11],> 100 µM
same,TGI,[12],> 100 µM
same,TGI,[13],> 100 µM
same,TGI,[14],> 100 µM
same,TGI,[15],> 100 µM
same,TGI,[16],> 100 µM
same,TGI,[17],> 100 µM
same,TGI,[18],> 100 µM
same,TGI,[19],> 100 µM
same,TGI,[20],> 100 µM
same,TGI,[21],> 100 µM
same,TGI,[22],> 100 µM
same,TGI,[55],> 100 µM
same,TGI,[23],> 100 µM
same,TGI,[24],> 100 µM
same,TGI,[25],> 100 µM
same,TGI,[26],> 100 µM
same,TGI,[27],> 100 µM
same,TGI,[28],> 100 µM
same,TGI,[29],> 100 µM
same,TGI,[30],> 100 µM
same,TGI,[31],> 100 µM
same,TGI,[32],> 100 µM
same,TGI,[33],> 100 µM
same,TGI,[34],> 100 µM
same,TGI,[56],> 100 µM
same,TGI,[57],> 100 µM
same,TGI,[35],> 100 µM
same,TGI,[36],> 100 µM
same,TGI,[37],> 100 µM
same,TGI,[38],> 100 µM
same,TGI,[39],> 100 µM
same,TGI,[40],> 100 µM
same,TGI,[41],> 100 µM
same,TGI,[42],> 100 µM
same,TGI,[43],> 100 µM
same,TGI,[45],> 100 µM
same,TGI,[46],> 100 µM
same,TGI,[47],> 100 µM
same,TGI,[48],> 100 µM
same,TGI,[49],> 100 µM
same,TGI,[50],> 100 µM
same,TGI,[51],> 100 µM
same,TGI,[52],> 100 µM
same,TGI,[53],> 100 µM

# — PubChem BioAssay (NCI)
